Results reported in patent US11332483B2, “Naphthoquinone containing gold carbene complexes and methods of uses thereof” (BOARD OF REGENTS, THE UNIVERSITY OF TEXAS SYSTEM, priority 2017, dated 2022).
Like-named read-outs stand apart in the source and are kept apart here.

Key:
[1] = system: A2780 ovarian (wt-p53, platinum sensitive); assay: Cell proliferation (MTT) assay in A2780 ovarian cells; format: cell-based; conditions: Table 3; error is standard error of the mean
Procedure: (§1) Further anti-proliferation studies were carried out with complex 1 and its naphthoquinone component 4[H][Cl] using the following cell lines: A2780 ovarian (a wt-p53 cell line sensitive to platinum treatment), 2780CP ovarian (isogenic to A2780 but expressing multi-drug resistance (MDR)), and PC-3 prostate (p53 null) (Table 3).
(§2) Cells were harvested and seeded into 96-well culture plates (Costar 07-200-90) in 100 μL of culture media. They were allowed to incubate overnight at 37° C. in the presence of 5% CO2. A549 was seeded at a density of 1000 cells/well, A2780 at 2500 cells/well, A2780CP at 3000 cells/well, and PC-3 at 2000 cells/well. The next day, appropriate serial dilutions of drug stocks in culture media were made. To each well of a 96 well plate was added 100 μL of the appropriate solution. After a total of three days, a […] aliquot of 3 mg/mL tetrazolium dye, 344,5-dimethylthiazol-2-yl)-2,5-diphenyltetrazolium bromide (Alfa Aesar L11939) was added to each well, followed by a 4 hr incubation period at 37° C. The medium was then removed, the resulting formazan was dissolved in […] DMSO and the respective absorbances were measured at 560-650 nm using a microplate reader (Molecular Devices, Sunnyvale, Calif.). Absorbance values were corrected for background and then normalized to wells containing untreated cells to allow for plate-to-plate comparisons. […]

[2] = system: A549 lung cancer cells; assay: Cell proliferation (MTT) assay in A549 lung cancer cells; format: cell-based, human; conditions: for Fold Difference relative to 1: A549 IC50 relative to complex 1
Procedure: Cells were harvested and seeded into 96-well culture plates (Costar 07-200-90) in 100 μL of culture media. They were allowed to incubate overnight at 37° C. in the presence of 5% CO2. A549 was seeded at a density of 1000 cells/well, A2780 at 2500 cells/well, A2780CP at 3000 cells/well, and PC-3 at 2000 cells/well. The next day, appropriate serial dilutions of drug stocks in culture media were made. To each well of a 96 well plate was added 100 μL of the appropriate solution. After a total of three days, a […] aliquot of 3 mg/mL tetrazolium dye, 344,5-dimethylthiazol-2-yl)-2,5-diphenyltetrazolium bromide (Alfa Aesar L11939) was added to each well, followed by a 4 hr incubation period at 37° C. The medium was then removed, the resulting formazan was dissolved in […] DMSO and the respective absorbances were measured at 560-650 nm using a microplate reader (Molecular Devices, Sunnyvale, Calif.). Absorbance values were corrected for background and then normalized to wells containing untreated cells to allow for plate-to-plate comparisons. The data are shown as mean inhibition of proliferation or growth as a percentage of control cells and are from 2-3 replicate experiments. Resulting dose response curves were subjected to linear regression analysis (Origin by OriginLab, Inc.) for determination of IC50 values.

[3] = system: A549 cells; assay: Detection of intracellular ROS by flow cytometry (CM-H2DCFDA); format: cell-based, human; conditions: for intracellular ROS increase: A549, dose responsive, 6 h, in words
Procedure: To establish whether or not the complexes of this disclosure would increase intracellular ROS levels, A549 cells were treated with each complex in a dose responsive manner.
Tumor cells (1×10^6) were plated in a 6-well plate overnight and then incubated with media containing various complexes described at concentrations of 0.625-2.5 μM. Control cells were treated with vehicle only. After a 6 h. incubation, the cells were washed with PBS, detached with 0.250 mL 1× trypsin, collected in a 15 mL conical tube, and pelleted by centrifugation (3 min @ 300 g) at 5° C. The resulting pellet was again washed 2× with cold PBS and pelleted at 5° C. […] The cells were then pelleted, washed with 2 mL PBS, and re-suspended in PBS containing 2 μg/mL propidium iodide (PI, Chemodex P0023) for a final cell concentration of 0.5×10^6 cells/mL. Control samples of unstained cells, cells stained with only CM-H2DCFDA, and cells stained with only PI were also prepared. Each sample was added to one well of a 96-well plate. Samples were then subjected to FACS analysis using a Millipore Guava easyCyte 8 and analyzed using the Guava inCyte software.

[4] = system: thioredoxin reductase (TrxR) in A549 cells; assay: Lipoate reduction assay of thioredoxin reductase activity in live cells; format: cell-based, human; conditions: for inhibition of TrxR (lipoate reduction): 6 h; for TrxR activity by lipoate reduction, time and dose dependence: A549, in words
Procedure: To assess whether any or all of the present gold complexes could serve as TrxR inhibitors, standard tests involving the reduction of the oxidized form of the cell-permeable cofactor lipoate to its corresponding reduced form, dihydrolipoate, were carried out. […] [Cl] and 5 (cocktail), auranofin, and doxorubicin for 6 h. Post treatment, the live cells were monitored colorimetrically over 180 min for their ability to reduce lipoate (FIG. 5A).
Cells were harvested and seeded at a density of 10,000 cells/well A549 in 96-well culture plates. They were then incubated overnight at 37° C. and 5% CO2. The next day, appropriate serial dilutions of drug stock in culture media were performed, and 100 μL of the appropriate solution were added to each well. Cells were returned to the incubator for 6 h. Afterwards, the liquid was then removed from each well by vacuum aspiration and replaced by 100 μL of 5 mM lipoate (Tokyo Chemical Industry Co., Ltd. L0207) and 1 mM DTNB (Acros Organics 117540050) in HBSS (Life tech 14025-092). The absorbance of each well at […] was recorded immediately and once every 20 min for three h on a microplate reader (Molecular Devices, Sunnyvale, Calif.). Plates were covered with aluminum foil between readings.

[5] = system: 2780CP ovarian (multi-drug resistant); assay: Cell proliferation (MTT) assay in 2780CP ovarian cells; format: cell-based; conditions: Table 3; error is standard error of the mean
Procedure: as §1, §2

[6] = Electrochemical analysis (differential pulse voltammetry) in DMSO; format: physicochemical; conditions: 0.1M [N(nBu)4][PF6], 0.1 mM analyte, vs SCE
Procedure: [Cl] (Guth et al., 2011; Gómez et al., 2003).
1,3-Dimesitylnapthoquinimidazolium chloride (Sanderson et al., 2006; Tennyson et al., 2010), (1,3-dimesityl-4,5-naphthoquino-imidazol-2-ylidene)-silver(I) chloride (Sanderson et al., 2006; Tennyson et al., 2010), (C4H2S)AuCl (Hashmi, et al., 2010) were prepared according to the literature procedures. All other reagents were purchased from commercial sources and used as received, including: [((CH3)3Si)2N]Na (NaHMDS) and silver(I) oxide. CD2Cl2 (99.9%) was purchased from Acros Laboratories in glass ampules and used as received. Solvents were either dried with a solvent purification system from the Inert Innovative Technology, Inc. (dichloromethane, diethyl ether, hexanes, tetrahydrofuran and toluene) or freshly distilled over 3 Å molecular sieves and degassed using three consecutive freeze-pump-thaw cycles prior to use. UV-vis spectra were obtained at ambient temperature with a Hewlett-Packard 8452A diode array spectrophotometer with molar absorptivities reported in M^−1 cm^−1. ^1H and ^13C NMR spectra were recorded on Bruker 300 MHz spectrometer. Spectra were referenced to the residual solvent as an internal standard, for ^1H NMR: CD2Cl2, 5.32 ppm and ^13C NMR: CD2Cl2, 53.84 ppm. High-resolution mass spectra (HRMS) were obtained with an Agilent Technologies 6530 Accurate Mass Q-TOF LC/MS (ESI) and are reported as m/z (relative intensity). Electroanalytical measurements were performed on a CHI620E electrochemical workstation using a silver wire quasi-reference electrode, a platinum disk working electrode and a Pt wire auxiliary electrode in a three-electrode cell under an atmosphere of nitrogen. […] All potentials listed herein were determined by differential pulse voltammetry and referenced to a saturated calomel electrode (SCE) by shifting ferrocene^0/+ to 0.435 V (DMSO) (Aranzaes et al., 2006). Spectroelectrochemistry measurements were obtained at ambient temperature with a custom designed three-electrode cell using Hewlett-Packard 8452A diode array spectrophotometer and CHI620E. Elemental analyses were performed by Midwest Microlab, LLC in Indianapolis, Ind. […] Trypsin (Hyclone SH30236.01) and Dulbecco's Phosphate Buffer Saline (Sigma R5886) were used for general cell maintenance and harvesting. Cell lines were obtained from the ATCC (A549 and PC-3) and Prof. Zahid Siddik at MD Anderson (A2780 and A2780CP). Thiazolyl blue tetrazolium bromide (Alfa Aesar L11939) was used for cell proliferation assays. Cell culture plastic ware consisted of generic T-75 flasks, 80.5 mm diameter culture dishes, and treated 96-well plates.

[7] = system: PC-3 prostate (p53 null); assay: Cell proliferation (MTT) assay in PC-3 prostate cells; format: cell-based; conditions: Table 3; error is standard error of the mean
Procedure: as §1, §2

[8] = system: A549 lung cancer cells; assay: ICP-MS detection of intracellular Au (cellular uptake)
Procedure: Roughly 7−8×10^6 cells were grown to 70-80% confluence in T-75 cell culture flasks (Thermo 130190) and treated with respective compound in RPMI medium supplemented with 10% FBS and antibiotics for the desired incubation time. The medium was then removed and cells were washed with 8 mL 1× warm PBS. 2 mL 1×PBS was then added to each flask, and the cells were removed by scraping. Each cell suspension was then pipetted into a clean, labeled 15 mL centrifuge tube (Thermo 339650). Cells were pelleted by centrifuging at 1,000 rpm for 5 min in an Eppendorf 5804 with a swing-bucket rotor. The supernatant was removed by vacuum aspiration, and the pellet was resuspended in 50 μL autoclaved deionized water. Suspension/lysates were then kept at −80° C. until further use. After thawing, the lysates were then sonicated using a Branson Digital Sonifier, and 5 μL aliquots were taken for determination of protein content of the sample. Lysates were digested with 80 μL aqua regia and heated to 65° C. for 1 h. Digested lysates were diluted with 4 mL 3% Trace Metal Grade HCl and gold content was measured on a Perkin Elmer NexION 300× set to detect gold at 197 m/z. Gold concentrations were quantified using the linear range of a standard curve generated by serial dilution of an ICP-MS gold standard (Ricca MSAU1KH-100) in 3% HCl. Values were then normalized to protein content as determined using a Modified Lowry Protein Assay Kit (Thermo 23240) and known concentrations of bovine serum albumin (Fisher 9048-46-8).
The Modified Lowry Assay was used to determine the protein content of each sample for normalization purposes. The standard curve for each run was made from a 2-fold serial dilution of fresh 5 mg/mL BSA solution. Aliquots were diluted to within the linear range of the standard curve using autoclaved DI water, and subjected to the Modified Lowry Assay in round-bottomed 96-well clear plates (Fisher 12565500). […] All other aspects of the procedure were as detailed in the microplate procedure instructions that come with the kit.

[9] = system: A549 cells; conditions: A549, 24 h
Procedure: Control cells were treated with vehicle only. At 24 h, the media was collected and the cells were washed with PBS. The PBS washing was collected and the attached cells were then subjected to 0.5× trypsin (diluted with PBS) for 2 min. All media and washings were collected, pelleted by centrifugation (3 min @ 300 g) and washed twice with cold PBS. […] After this, 100 μL of cell suspension was added to 1.5 mL centrifuge tubes, followed by 5 μL each of Annexin V-FITC and propidium iodide (PI, 50 μg/mL) solution. Control samples of unstained cells, cells stained with only Annexin V-FITC, and cells stained with only PI were also prepared. Samples were allowed to incubate in the dark for 15 min at ambient temperature. After incubation, each sample was diluted with 200 μL of Annexin V binding buffer, and the resulting 300 μL sample was added to one well of a 96-well plate. Samples were then subjected to FACS analysis using a Millipore Guava easyCyte 8 and analyzed using Guava inCyte software.

[10] = system: Panc-02 cells
[11] = A549 lung cancer cells, MTT, 72 h, read-out: IC50
[12] = A549, higher concentrations (1.25-5.0 μM)
[13] = A549, low concentrations (0.1-0.6 μM)

Compound	Fold Difference relative to 1 [2]	IC50 [2, 11] [nM]	inhibition of TrxR (lipoate reduction) [4, 12]	E1/2 (V) DPV, first reduction, formation of semiquinone radical [6] [V]	E1/2^b (V) DPV, second reduction, formation of quinone dianion [6] [V]	intracellular ROS increase [3]	inhibition of TrxR (lipoate reduction) [4, 13]	TrxR activity by lipoate reduction, time and dose dependence [4]	further results
Cc1cc(C)c(-n2c[n+](-c3c(C)cc(C)cc3C)c3c2C(=O)c2ccccc2C3=O)c(C)c1.[Cl-] [Compound 4[H][Cl], 1,3-Dimesitylnaphthoquinimidazolium chloride, reference compound]	13.6	990 ± 120	became evident	−0.38	−1.15				IC50 [1]: 159 ± 58 nM; IC50 ([2]; A549 lung cancer cells, MTT, 72 h, listed as 4, read-out: IC50): 994 nM; IC50 ([2]; Table 3, error is standard error of the mean, read-out: IC50 A549 Lung): 994 ± 120 nM; fluorescence associated cell population shift (intracellular ROS increase) ([3]; A549, 2.5 μM, 6 h incubation): ~11 fold; IC50 [5]: 626 ± 117 nM; IC50 [7]: 136 ± 20 nM
CC(=O)OC[C@H]1O[C@@H]([S-])[C@H](OC(C)=O)[C@@H](OC(C)=O)[C@@H]1OC(C)=O.CCP(CC)CC.[Au+] [Auranofin, auranofin]	22.9	1670 ± 50				minimal or no ROS increase	inhibition of TrxR was apparent		increase in intracellular Au concentrations as compared to complex 1 [8]: 2-5 fold
COc1cccc2c1C(=O)c1c(O)c3c(c(O)c1C2=O)C[C@@](O)(C(=O)CO)C[C@@H]3O[C@H]1C[C@H](N)[C@H](O)[C@H](C)O1 [Doxorubicin, doxorubicin]	1.41		remained inactive			minimal or no ROS increase	little to no inhibition	no inhibition of activity	IC50 ([2]; Homo sapiens, A549 lung cancer cells, MTT, 72 h, read-out: IC50): 103 ± 23 nM; induction of apoptosis (annexin-V/PI) [9]: provided similar results in both the early and late stage apoptotic quadrants
Cc1cc(C)c(-n2c3c([n+](-c4c(C)cc(C)cc4C)[c]2[Au-][Cl])C(=O)c2ccccc2C3=O)c(C)c1 [Compound 3, (1,3-Dimesityl-4,5-naphthoquino-imidazol-2-ylidene)-gold(I) Chloride]	165	12100	remained inactive	−0.47	−1.31	minimal or no ROS increase			intracellular Au levels (ICP-MS) [8]: no intracellular Au was detected
Cc1cc(C)c(-n2c3c([n+](-c4c(C)cc(C)cc4C)[c]2[Au-][c]2n(-c4c(C)cc(C)cc4C)c4c([n+]2-c2c(C)cc(C)cc2C)C(=O)c2ccccc2C4=O)C(=O)c2ccccc2C3=O)c(C)c1.[Cl-] [Compound 2]	1			−0.46	−1.31	performed similarly		performed similarly	presence of CRT on cells ([10]; Panc-02, 0.1 μM): 6.1±1.6 % of cells; presence of CRT on cells ([10]; Panc-02, 1.0 μM): 33.4±5.8 % of cells
O=C1[O][Pt]2([NH][C@@H]3CCCC[C@H]3[NH]2)[O]C1=O [oxaliplatin, reference compound]									presence of CRT on cells ([10]; Panc-02, 300 μM): 18.6±2.8 % of cells
